From doi:10.1101/2020.06.11.145995v1 (biorxiv, 2020)

Key:
Test in all cases: biochemical
FLT3-autoinhibited = FLT3-autoinhibited (Homo sapiens, UniProt P36888); details: read-out: CPT-1-70-1 (1uM) % control
NIK = NIK (Homo sapiens, UniProt Q99558); details: read-out: CPT-1-70-1 (1μM) % control
PKAC-alpha = PKAC-alpha (Homo sapiens, UniProt P17612); details: read-out: CPT-1-70-1 (1μM) % control
PIK3CG = PIK3CG (Homo sapiens, UniProt P48736); details: read-out: CPT-1-70-1 (1μM) % control
PIK3CA(Q546K) = PIK3CA(Q546K) (Homo sapiens, UniProt P42336, Q546K); details: read-out: CPT-1-70-1 (1μM) % control
PIP5K2C = PIP5K2C (Homo sapiens, UniProt Q8TBX8); details: read-out: CPT-1-70-1 (1μM) % control
PKAC-beta = PKAC-beta (Homo sapiens, UniProt P22694); details: read-out: CPT-1-70-1 (1μM) % control
NEK10 = NEK10 (Homo sapiens, UniProt Q6ZWH5); details: read-out: CPT-1-70-1 (1μM) % control
PIM1 = PIM1 (Homo sapiens, UniProt P11309); details: read-out: CPT-1-70-1 (1μM) % control
SGK = SGK (Homo sapiens, UniProt O00141); details: read-out: CPT-1-70-1 (1μM) % control
PIK3CD = PIK3CD (Homo sapiens, UniProt O00329); details: read-out: CPT-1-70-1 (1μM) % control
Chain of PIK3CD (O00329 whole entry): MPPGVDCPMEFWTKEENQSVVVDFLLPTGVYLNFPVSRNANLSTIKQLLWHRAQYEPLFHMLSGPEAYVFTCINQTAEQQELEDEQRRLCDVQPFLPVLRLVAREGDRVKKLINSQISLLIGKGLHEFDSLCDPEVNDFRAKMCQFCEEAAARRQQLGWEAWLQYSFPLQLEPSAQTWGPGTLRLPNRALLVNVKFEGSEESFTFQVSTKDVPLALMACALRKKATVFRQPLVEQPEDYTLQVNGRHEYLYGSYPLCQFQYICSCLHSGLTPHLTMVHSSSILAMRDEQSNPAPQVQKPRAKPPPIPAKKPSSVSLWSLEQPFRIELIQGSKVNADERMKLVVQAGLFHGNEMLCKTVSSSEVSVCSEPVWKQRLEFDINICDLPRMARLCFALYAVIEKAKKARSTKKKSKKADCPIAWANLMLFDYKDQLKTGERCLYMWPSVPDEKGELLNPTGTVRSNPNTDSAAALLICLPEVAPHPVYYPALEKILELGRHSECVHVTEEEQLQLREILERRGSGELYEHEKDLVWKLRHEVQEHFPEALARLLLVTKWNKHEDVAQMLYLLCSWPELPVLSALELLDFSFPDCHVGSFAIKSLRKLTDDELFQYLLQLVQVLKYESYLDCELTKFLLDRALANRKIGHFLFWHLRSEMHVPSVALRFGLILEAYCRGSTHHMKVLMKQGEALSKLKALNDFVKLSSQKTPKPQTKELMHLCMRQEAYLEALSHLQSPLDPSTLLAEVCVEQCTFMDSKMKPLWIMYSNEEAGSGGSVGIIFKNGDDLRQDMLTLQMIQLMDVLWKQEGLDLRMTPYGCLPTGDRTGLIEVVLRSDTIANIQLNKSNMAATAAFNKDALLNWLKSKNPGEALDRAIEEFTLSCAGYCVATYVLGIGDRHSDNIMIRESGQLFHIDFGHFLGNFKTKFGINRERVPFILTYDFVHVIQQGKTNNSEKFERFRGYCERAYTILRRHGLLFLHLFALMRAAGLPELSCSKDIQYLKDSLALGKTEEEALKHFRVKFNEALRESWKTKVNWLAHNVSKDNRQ

PIM3 = PIM3 (Homo sapiens, UniProt Q86V86); details: read-out: CPT-1-70-1 (1μM) % control
SGK2 = SGK2 (Homo sapiens, UniProt Q9HBY8); details: read-out: CPT-1-70-1 (1μM) % control
PKN2 = PKN2 (Homo sapiens, UniProt Q16513); details: read-out: CPT-1-70-1 (1μM) % control
PIK3CB = PIK3CB (Homo sapiens, UniProt P42338); details: read-out: CPT-1-70-1 (1μM) % control
WNK3 = WNK3 (Homo sapiens, UniProt Q9BYP7); details: read-out: CPT-1-70-1 (1μM) % control
Chain of WNK3 (Q9BYP7 whole entry): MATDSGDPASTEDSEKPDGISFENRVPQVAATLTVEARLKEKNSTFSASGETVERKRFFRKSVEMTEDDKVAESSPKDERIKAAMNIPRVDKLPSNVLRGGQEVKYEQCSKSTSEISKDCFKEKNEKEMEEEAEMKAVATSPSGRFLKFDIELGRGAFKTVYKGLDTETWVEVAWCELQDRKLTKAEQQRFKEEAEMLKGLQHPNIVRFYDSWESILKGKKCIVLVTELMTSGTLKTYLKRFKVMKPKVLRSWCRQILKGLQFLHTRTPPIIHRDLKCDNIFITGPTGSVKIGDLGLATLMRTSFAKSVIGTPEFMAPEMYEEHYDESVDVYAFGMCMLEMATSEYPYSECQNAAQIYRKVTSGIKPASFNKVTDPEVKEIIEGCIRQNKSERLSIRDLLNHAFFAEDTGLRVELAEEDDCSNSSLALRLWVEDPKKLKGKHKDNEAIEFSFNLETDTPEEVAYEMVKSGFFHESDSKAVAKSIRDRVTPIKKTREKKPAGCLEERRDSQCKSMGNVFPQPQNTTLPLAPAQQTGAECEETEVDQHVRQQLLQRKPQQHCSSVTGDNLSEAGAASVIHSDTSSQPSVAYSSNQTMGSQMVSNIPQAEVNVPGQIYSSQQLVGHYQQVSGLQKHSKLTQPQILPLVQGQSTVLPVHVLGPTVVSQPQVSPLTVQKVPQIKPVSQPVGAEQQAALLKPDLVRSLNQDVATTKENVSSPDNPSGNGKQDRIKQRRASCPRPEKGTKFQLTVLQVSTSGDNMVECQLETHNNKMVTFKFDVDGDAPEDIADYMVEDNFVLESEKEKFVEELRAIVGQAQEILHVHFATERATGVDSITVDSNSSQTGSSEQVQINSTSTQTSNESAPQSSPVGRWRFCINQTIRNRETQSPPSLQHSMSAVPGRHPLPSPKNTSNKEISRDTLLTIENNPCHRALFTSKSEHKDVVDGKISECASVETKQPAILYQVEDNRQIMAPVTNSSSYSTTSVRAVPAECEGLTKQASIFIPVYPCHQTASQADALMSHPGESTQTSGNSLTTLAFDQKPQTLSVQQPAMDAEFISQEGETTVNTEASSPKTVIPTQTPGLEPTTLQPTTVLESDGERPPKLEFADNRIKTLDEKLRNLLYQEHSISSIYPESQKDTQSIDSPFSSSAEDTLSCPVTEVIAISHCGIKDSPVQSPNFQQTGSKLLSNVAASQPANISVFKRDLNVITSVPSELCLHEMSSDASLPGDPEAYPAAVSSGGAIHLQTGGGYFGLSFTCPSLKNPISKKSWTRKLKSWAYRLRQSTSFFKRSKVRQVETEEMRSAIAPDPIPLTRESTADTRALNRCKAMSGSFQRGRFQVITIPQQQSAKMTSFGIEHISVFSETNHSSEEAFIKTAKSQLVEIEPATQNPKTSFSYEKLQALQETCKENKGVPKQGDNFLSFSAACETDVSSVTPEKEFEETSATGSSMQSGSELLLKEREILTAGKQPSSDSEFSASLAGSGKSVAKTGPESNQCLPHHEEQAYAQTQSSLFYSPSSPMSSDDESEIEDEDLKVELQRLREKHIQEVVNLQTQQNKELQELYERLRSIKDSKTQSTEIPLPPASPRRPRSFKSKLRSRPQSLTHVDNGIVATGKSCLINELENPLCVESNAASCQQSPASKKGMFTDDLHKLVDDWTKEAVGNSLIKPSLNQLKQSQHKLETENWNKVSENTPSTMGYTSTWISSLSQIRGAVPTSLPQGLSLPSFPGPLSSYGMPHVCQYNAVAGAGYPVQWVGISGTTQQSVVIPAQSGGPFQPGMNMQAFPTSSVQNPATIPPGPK

PIP5K1A = PIP5K1A (Homo sapiens, UniProt Q99755); details: read-out: CPT-1-70-1 (1μM) % control
Chain of PIP5K1A (Q99755 whole entry): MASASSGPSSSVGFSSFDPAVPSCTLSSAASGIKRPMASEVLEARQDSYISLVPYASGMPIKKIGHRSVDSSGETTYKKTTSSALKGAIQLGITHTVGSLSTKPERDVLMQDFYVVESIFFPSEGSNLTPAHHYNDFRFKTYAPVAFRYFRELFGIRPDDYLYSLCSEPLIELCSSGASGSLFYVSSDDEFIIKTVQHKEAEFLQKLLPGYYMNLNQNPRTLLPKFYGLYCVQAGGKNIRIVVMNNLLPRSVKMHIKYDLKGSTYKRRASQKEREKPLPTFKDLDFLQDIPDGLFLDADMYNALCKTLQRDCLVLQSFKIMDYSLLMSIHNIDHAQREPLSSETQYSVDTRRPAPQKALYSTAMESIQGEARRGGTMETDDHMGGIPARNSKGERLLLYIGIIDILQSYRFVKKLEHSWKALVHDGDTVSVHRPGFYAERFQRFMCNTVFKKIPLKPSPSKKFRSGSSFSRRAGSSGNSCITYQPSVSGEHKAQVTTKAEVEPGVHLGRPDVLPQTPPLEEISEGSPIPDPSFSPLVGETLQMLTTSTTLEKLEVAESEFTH

PIM2 = PIM2 (Homo sapiens, UniProt Q9P1W9); details: read-out: CPT-1-70-1 (1μM) % control
Chain of PIM2 (Q9P1W9 whole entry): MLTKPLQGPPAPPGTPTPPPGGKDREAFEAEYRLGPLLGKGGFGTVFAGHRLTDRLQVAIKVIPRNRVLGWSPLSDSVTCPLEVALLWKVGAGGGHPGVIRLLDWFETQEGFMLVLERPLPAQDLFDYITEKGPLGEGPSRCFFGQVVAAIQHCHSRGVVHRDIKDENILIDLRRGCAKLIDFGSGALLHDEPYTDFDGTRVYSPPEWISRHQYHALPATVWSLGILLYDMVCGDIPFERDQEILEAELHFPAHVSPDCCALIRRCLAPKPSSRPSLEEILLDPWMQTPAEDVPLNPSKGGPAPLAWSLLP

PKMYT1 = PKMYT1 (Homo sapiens, UniProt Q99640); details: read-out: CPT-1-70-1 (1μM) % control
PKN1 = PKN1 (Homo sapiens, UniProt Q16512); details: read-out: CPT-1-70-1 (1μM) % control
WNK1 = WNK1 (Homo sapiens, UniProt Q9H4A3); details: read-out: CPT-1-70-1 (1μM) % control
PIK4CB = PIK4CB (Homo sapiens, UniProt Q9UBF8); details: read-out: CPT-1-70-1 (1μM) % control
Chain of PIK4CB (Q9UBF8 whole entry): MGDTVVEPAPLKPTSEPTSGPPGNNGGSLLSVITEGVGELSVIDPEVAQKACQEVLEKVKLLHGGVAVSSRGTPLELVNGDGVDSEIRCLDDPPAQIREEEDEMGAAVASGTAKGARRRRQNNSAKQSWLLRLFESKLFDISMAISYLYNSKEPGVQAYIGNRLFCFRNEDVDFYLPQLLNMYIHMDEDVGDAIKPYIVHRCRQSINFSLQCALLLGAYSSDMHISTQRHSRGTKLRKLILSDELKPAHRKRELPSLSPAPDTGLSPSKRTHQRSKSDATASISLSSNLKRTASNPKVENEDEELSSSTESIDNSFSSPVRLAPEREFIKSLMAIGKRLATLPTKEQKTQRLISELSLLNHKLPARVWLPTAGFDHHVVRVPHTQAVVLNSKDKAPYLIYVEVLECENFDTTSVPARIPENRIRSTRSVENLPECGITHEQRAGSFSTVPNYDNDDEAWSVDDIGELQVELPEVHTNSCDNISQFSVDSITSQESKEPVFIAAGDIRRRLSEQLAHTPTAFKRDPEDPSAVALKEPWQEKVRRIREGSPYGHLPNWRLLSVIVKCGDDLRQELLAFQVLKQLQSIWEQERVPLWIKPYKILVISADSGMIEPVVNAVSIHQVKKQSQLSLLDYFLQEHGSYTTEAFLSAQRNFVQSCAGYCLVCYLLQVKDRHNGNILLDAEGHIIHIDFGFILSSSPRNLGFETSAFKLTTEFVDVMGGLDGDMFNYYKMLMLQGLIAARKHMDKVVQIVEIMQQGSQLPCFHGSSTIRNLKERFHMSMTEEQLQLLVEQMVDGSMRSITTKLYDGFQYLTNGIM

PIP5K2B = PIP5K2B (Homo sapiens, UniProt P78356); details: read-out: CPT-1-70-1 (1μM) % control
Chain of PIP5K2B (P78356 whole entry): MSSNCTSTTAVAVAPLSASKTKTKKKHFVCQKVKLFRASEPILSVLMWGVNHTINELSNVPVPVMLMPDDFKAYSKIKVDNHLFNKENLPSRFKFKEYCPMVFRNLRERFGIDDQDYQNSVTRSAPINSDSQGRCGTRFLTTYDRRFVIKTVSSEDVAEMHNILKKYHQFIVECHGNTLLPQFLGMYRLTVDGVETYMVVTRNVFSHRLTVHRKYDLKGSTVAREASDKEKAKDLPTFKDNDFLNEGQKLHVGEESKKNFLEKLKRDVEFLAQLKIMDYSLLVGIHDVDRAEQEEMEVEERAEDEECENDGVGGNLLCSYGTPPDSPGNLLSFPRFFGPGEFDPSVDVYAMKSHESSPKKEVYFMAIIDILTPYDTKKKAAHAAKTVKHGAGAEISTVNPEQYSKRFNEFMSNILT

PIP5K1C = PIP5K1C (Homo sapiens, UniProt O60331); details: read-out: CPT-1-70-1 (1μM) % control
EPHB2 = EPHB2 (Homo sapiens, UniProt P29323); details: read-out: CPT-1-70-1 (1uM) % control
BUB1 = BUB1 (Homo sapiens, UniProt O43683); details: read-out: CPT-1-70-1 (1uM) % control
EPHA4 = EPHA4 (Homo sapiens, UniProt P54764); details: read-out: CPT-1-70-1 (1uM) % control
ERK8 = ERK8 (Homo sapiens, UniProt Q8TD08); details: read-out: CPT-1-70-1 (1uM) % control
EGFR(L858R,T790M) = EGFR(L858R,T790M) (Homo sapiens, UniProt P00533, L858R/T790M); details: read-out: CPT-1-70-1 (1uM) % control

CN1CCN(c2ccc(Nc3nc(Oc4ccc(NC(=O)CCl)cc4)c4cc[nH]c4n3)cc2)CC1 [CPT1-70-1]
remaining activity at 1 µM (FLT3-autoinhibited): 38% | remaining activity at 1 µM (NIK): 100% | remaining activity at 1 µM (PKAC-alpha): 69% | remaining activity at 1 µM (PIK3CG): 100% | remaining activity at 1 µM (PIK3CA(Q546K)): 100% | remaining activity at 1 µM (PIP5K2C): 63% | remaining activity at 1 µM (PKAC-beta): 100% | remaining activity at 1 µM (NEK10): 14% | remaining activity at 1 µM (PIM1): 100% | remaining activity at 1 µM (SGK): 26% | remaining activity at 1 µM (PIK3CD): 100% | remaining activity at 1 µM (PIM3): 81% | remaining activity at 1 µM (SGK2): 100% | remaining activity at 1 µM (PKN2): 100% | remaining activity at 1 µM (PIK3CB): 100% | remaining activity at 1 µM (WNK3): 100% | remaining activity at 1 µM (PIP5K1A): 13% | remaining activity at 1 µM (PIM2): 100% | remaining activity at 1 µM (PKMYT1): 94% | remaining activity at 1 µM (PKN1): 79% | remaining activity at 1 µM (WNK1): 100% | remaining activity at 1 µM (PIK4CB): 100% | remaining activity at 1 µM (PIP5K2B): 100% | remaining activity at 1 µM (PIP5K1C): 57% | remaining activity at 1 µM (EPHB2): 100% | remaining activity at 1 µM (BUB1): 85% | remaining activity at 1 µM (EPHA4): 94% | remaining activity at 1 µM (ERK8): 86% | remaining activity at 1 µM (EGFR(L858R,T790M)): 0.35%
